Counter-ions that a name gives are not always drawn.
Assay: in vitro
Conditions: rat, gh3-tre-luc cells, AC50 (uM) modified / 1000

SMILES | CC50 at 24 h [µM]
CCCCC/C(=C\c1ccccc1)CO [alpha-Amylcinnamyl alcohol] | 46.6
O=C(c1ccc(O)cc1O)c1ccc(O)cc1O [2,2',4,4'-Tetrahydroxybenzophenone] | > 90
CC(C)(CO)COC(=O)C(C)(C)CO [3-Hydroxy-2,2-dimethylpropyl 3-hydroxy-2,2-dimethylpropanoate] | > 90
CC1CC(=O)NN=C1c1ccc(NCC(C)(C)NCC(O)COc2cc(Cl)ccc2C#N)cc1 (stereo not shown) [Oberadilol] | > 50
CCC1=C[C@@H]2CN(C1)Cc1c([nH]c3ccccc13)[C@@](C(=O)OC)(c1cc3c(cc1OC)N(C)[C@H]1[C@@](O)(C(=O)OC)[C@H](OC(C)=O)[C@]4(CC)C=CCN5CC[C@]31[C@@H]54)C2 [Vinorelbine tartrate] | 6.67
Cc1c(Cn2ccnc2)c2ccccc2n1CCC(=O)O [Dazmegrel] | > 50
O=C1OC(=O)c2c(Cl)c(Cl)c(Cl)c(Cl)c21 [Tetrachlorophthalic anhydride] | > 90
C[C@@]12C(=O)OC(=O)[C@]1(C)[C@H]1CC[C@@H]2O1 [Cantharidin] | 2.01
NC(CCC(=O)O)C(=O)O (racemic) [DL-Glutamic acid monohydrate] | > 80
CCOc1ccc(NC(=O)CC(C)O)cc1 (stereo not shown) [3-Hydroxy-4-butyrophenetidide] | > 90
Clc1nc(Cl)nc(Nc2ccccc2Cl)n1 [Anilazine] | > 90
Clc1ccc2c(c1)C(c1ccccc1)=NCc1nncn1-2 [Estazolam] | > 50
O=C(O)CP(=O)(O)O [Phosphonoacetic acid] | > 50
O=C(N[C@H]1CN2CCC1CC2)c1ccc2c(c1)OCCO2 [PHA-00568487] | > 90
O=C(N/N=C/c1ccc([N+](=O)[O-])o1)c1cc([N+](=O)[O-])cc([N+](=O)[O-])c1O [Nifursol] | 32.5
CC(C(O)c1ccccc1)N(C)CCOC(c1ccccc1)c1ccccc1 (stereo not shown) [Difeterol] | 15.1
Nc1nc(N)c2nc(CNc3ccc(C(=O)N[C@@H](CCC(=O)O)C(=O)O)cc3)cnc2n1 [4-Aminofolic acid] | > 50
COC(=O)OC [Dimethyl carbonate] | > 90
N#CCCC(Br)(C#N)CBr (stereo not shown) [1,2-Dibromo-2,4-dicyanobutane] | 16.2
Cc1cccc(C(=O)O)c1 [3-Methylbenzoic acid] | > 90
N=C(N)NC(=O)c1nc(Cl)c(N)nc1N [Amiloride hydrochloride] | > 90
CCOC(=O)[C@H](CCc1ccccc1)N[C@H]1CCc2ccccc2N(CC(=O)O)C1=O [Benazepril hydrochloride] | 5.95
CCCCCCCC(=O)Oc1c(Br)cc(C#N)cc1Br [Bromoxynil octanoate] | > 90
O=C1CCc2cc(OCCCCc3nnnn3C3CCCCC3)ccc2N1 [Cilostazol] | > 50
Cc1ccc(C=O)cc1C [3,4-Dimethylbenzaldehyde] | > 90

SMILES | CC50 at 24 h [µM]
CCCC[P+](CCCC)(CCCC)CCCC [Tetrabutylphosphonium bromide] | > 90
NS(=O)(=O)c1cc2c(cc1Cl)NC(C1CC3C=CC1C3)NS2(=O)=O (stereo not shown) [Cyclothiazide] | > 50
C[N+]1(C)CCCCC1 [Mepiquat chloride] | > 90
CCCCCCCC(=O)N(C)C [N,N-Dimethyloctanamide] | > 90
O=C(O)CCCCCCCCC(=O)O [Decanedioic acid] | > 90
C[C@H](/C=C/[C@H](C)C(C)(C)O)[C@H]1CC[C@H]2/C(=C/C=C3C[C@@H](O)C[C@H](O)C3)CCC[C@]12C [Paricalcitol] | 27
CCc1ccc(Br)cc1 [1-Bromo-4-ethylbenzene] | > 90
CCO[Si](OCC)(OCC)c1ccccc1 [Triethoxy(phenyl)silane] | > 90
CN[C@@H](C)[C@H](O)c1ccccc1 [Ephedrine hydrochloride] | > 50
CN(C)/C=N/c1c(I)cc(I)c(CCC(=O)O)c1I [Ipodate sodium] | > 50
CC(=O)OCC[N+](C)(C)C [Acetylcholine chloride] | > 50
CCCCCCOc1ccccc1C(N)=O [Exalamide] | > 50
CCCN(CCC)S(=O)(=O)c1ccc(C(=O)O)cc1 [Probenecid] | > 90
CO[Si](OC)(OC)OC [Tetramethyl orthosilicate] | 81.5
O=C1c2ccccc2C(=O)C1c1ccc(Br)cc1 [Bromindione] | > 50
CNS(=O)(=O)CCc1ccc2[nH]cc(C3CCN(C)CC3)c2c1 [Naratriptan hydrochloride] | > 50
CC(C)(C)NCC(O)COc1ccc(NC(=O)NC2CCCCC2)cc1 (stereo not shown) [Talinolol] | > 50
CCCCCCCCN(C)C [N,N-Dimethyloctylamine] | > 90
C[N+]1(C)CCCC(OC(=O)C(O)(c2ccccc2)c2ccccc2)C1 (stereo not shown) [Mepenzolate bromide] | > 20
CO[Si](CCCNc1ccccc1)(OC)OC [N-[3-(Trimethoxysilyl)propyl]aniline] | > 90
Nc1nc(NC2CC2)c2ncn([C@H]3C=C[C@@H](CO)C3)c2n1 [Abacavir] | > 50
CCOc1cc([N+](=O)[O-])c(OCC)cc1N1CCOCC1 [4-(2,5-Diethoxy-4-nitrophenyl)morpholine] | > 90
CC1=CC(=O)CCC1 [3-Methyl-2-cyclohexen-1-one] | > 90
CCCCn1cc[n+](C)c1C [1-Butyl-2,3-dimethylimidazolium chloride] | > 90
C=CC1=C(C)c2cc3[nH]c(cc4nc(cc5[nH]c(cc1n2)c(C)c5CCC(=O)O)C(CCC(=O)O)=C4C)c(C)c3C=C [Protoporphyrin disodium] | > 50

SMILES | CC50 at 24 h [µM]
C=C[Si](OC(=C)C)(OC(=C)C)OC(=C)C [Ethenyl[tris(prop-1-en-2-yloxy)]silane] | > 90
CC(CCCCN)C(C)(C)N (stereo not shown) [Trimethylhexane-1,6-diamine] | > 200
C=CCOC(=O)CC(C)C [Allyl isovalerate] | > 90
CC(O)c1ccccc1 (stereo not drawn) [alpha-Methylbenzyl alcohol] | > 90
O=C(NCC(O)CO)c1c(I)c(C(=O)NCC(O)CO)c(I)c(N(CCO)C(=O)CO)c1I (stereo not shown) [Ioversol] | > 20
CN(C)c1ccc(SC#N)cc1 [4-(Dimethylamino)phenylthiocyanate] | > 90
CCC(=O)O[C@]1(C(=O)CCl)[C@@H](C)C[C@H]2[C@@H]3C[C@H](F)C4=CC(=O)C=C[C@]4(C)[C@@]3(F)[C@@H](O)C[C@@]21C [Halobetasol propionate] | > 50
O=S(=O)(O)c1ccc(O)c2ncccc12 [8-Hydroxyquinoline-5-sulfonic acid hydrate (1:x)] | > 90
CC(CCc1ccccc1)NC(C)C(O)c1ccc(O)cc1 (stereo not shown) [Nylidrin] | 41.8
CC(=O)NC(Cc1ccccc1)C(=O)O (stereo not shown) [Afalanine] | > 50
CC1CCCC1 [Methylcyclopentane] | > 90
COCCCOc1ccnc(C[S+]([O-])c2nc3ccccc3[nH]2)c1C (stereo not shown) [Rabeprazole sodium] | > 90
CCC(C)(C)c1cc(-n2nc3ccccc3n2)c(O)c(C(C)(C)CC)c1 [2-(2H-Benzotriazol-2-yl)-4,6-bis(1,1-dimethylpropyl)phenol] | > 90
CN1CCN(C2=Nc3cc(F)ccc3Cc3ccccc32)CC1 [Fluperlapine] | 11.9
Cc1cc(O)c(Cl)c(C)c1Cl [2,4-Dichloro-3,5-dimethylphenol] | 56.9
Clc1cccc(C(Cl)(Cl)Cl)n1 [Nitrapyrin] | > 90
C1=C\CC/C=C/CC/C=C/CC/1 [1,5,9-Cyclododecatriene] | > 90
CC1CCC(C(C)CS)CC1S (stereo not shown) [Dipentenedimercaptan] | > 90
CCCCCCCCCOC(C)=O [Nonyl acetate] | > 90
COc1cc(C=O)ccc1OC(=O)C(C)C [Vanillin isobutyrate] | > 90
CCCCC(CC)CN1C(=O)[C@@H]2[C@H](C1=O)[C@@H]1C=C[C@H]2C1 (stereo partly shown) [Octylbicycloheptenedicarboximide] | 53.7
CSC(=O)c1c(C(F)F)nc(C(F)(F)F)c(C(=O)SC)c1CC(C)C [Dithiopyr] | 57.6
CC(=O)CC(=O)Nc1ccccc1C [N-(2-Methylphenyl)-3-oxobutanamide] | > 90

Same assay, conditions: rat, gh3-tre-luc cells, AC50 (uM) modified / 1000, Tox21_110001=Tox21_111273; viability, 1 nM T3 present, 24 h

SMILES | CC50 at 24 h [µM]
COc1ccccc1N1CCNCC1 [1-(2-Methoxyphenyl)piperazine hydrochloride] | > 50

Same assay, conditions: rat, gh3-tre-luc cells, AC50 (uM) modified / 1000, Tox21_110001=Tox21_111800; viability, 1 nM T3 present, 24 h

SMILES | CC50 at 24 h [µM]
CCOC(=O)/C=C(C)/C=C/C[C@@H](C)CCCC(C)C [(7S)-Hydroprene] | > 50

Same assay, conditions: rat, gh3-tre-luc cells, AC50 (uM) modified / 1000, Tox21_110001=Tox21_201934; viability, 1 nM T3 present, 24 h

SMILES | CC50 at 24 h [µM]
CCCCSP(=O)(SCCCC)SCCCC [Tribufos] | > 90

Same assay, conditions: rat, gh3-tre-luc cells, AC50 (uM) modified / 1000, Tox21_110001=Tox21_202297; viability, 1 nM T3 present, 24 h

SMILES | CC50 at 24 h [µM]
O=C(O)C(Br)Br [Dibromoacetic acid] | > 90

Same assay, conditions: rat, gh3-tre-luc cells, AC50 (uM) modified / 1000, Tox21_110001=Tox21_300736; viability, 1 nM T3 present, 24 h

SMILES | CC50 at 24 h [µM]
CNC(=S)S [Metam-sodium hydrate] | > 90

Same assay, conditions: rat, gh3-tre-luc cells, AC50 (uM) modified / 1000, Tox21_110001=Tox21_301004; viability, 1 nM T3 present, 24 h

SMILES | CC50 at 24 h [µM]
CSc1nc(N=[N+]=[N-])nc(NC(C)C)n1 [Aziprotryne] | > 90

Same assay, conditions: rat, gh3-tre-luc cells, AC50 (uM) modified / 1000, Tox21_110001=Tox21_301066; viability, 1 nM T3 present, 24 h

SMILES | CC50 at 24 h [µM]
CCOC(=O)/C=C(C)/C=C/C[C@@H](C)CCCC(C)C [(7S)-Hydroprene] | 87.1

Same assay, conditions: rat, gh3-tre-luc cells, AC50 (uM) modified / 1000, Tox21_110001=Tox21_301328; viability, 1 nM T3 present, 24 h

SMILES | CC50 at 24 h [µM]
COP(N)(=S)Oc1ccccc1C(=O)OC(C)C (stereo not shown) [Isocarbophos] | > 90

Same assay, conditions: rat, gh3-tre-luc cells, AC50 (uM) modified / 1000, Tox21_110001=Tox21_301964; viability, 1 nM T3 present, 24 h

SMILES | CC50 at 24 h [µM]
CON(C)C(=O)Nc1ccc(Br)cc1 [Metobromuron] | > 90

— publication PMC6792352, “Limited Chemical Structural Diversity Found to Modulate Thyroid Hormone Receptor in the Tox21 Chemical Library” (Environmental Health Perspectives, 2019)
